Structures can show the parent of a compound that is named as a salt. Where two headings read alike, the source gives them in different places. Where only a bound is given, the exact number is not on record here.

Results on 2 compounds are retold here after patent US8575211B2, “Synergistic combination of analgesic compounds” (Biocodex, priority 2008, dated 2013).

Experiment [1] relates to abdominal cramps induced in mice by acetic acid. To be noted: oral route, cited from earlier work.
Experiment [2] shares this test system. Kind of experiment: abdominal cramps induced in mice by intraperitoneal acetic acid, products by the subcutaneous route. It counts as in vivo. To be noted: for ED50: Mus musculus, product alone, subcutaneous, 30 min before acetic acid i.p., read-out: ED50 (dose producing 50% reduction in the number of cramps). As for the experimental part: The analgesic effect of a nefopam-ibuprofen combination was studied in the model of abdominal cramps induced in mice by the intraperitoneal administration of acetic acid. This model of pain induced by a chemical substance corresponds to acute, visceral, inflammatory pain. Male CD1 mice (C. River breed) weighing from 25 to 30 grams are used after an acclimatization of at least 7 days in the animal facility (t°=22±2; hygrometry=50±20%; food […]-darkness: […])). On the day of the experiment, the non-fasting mice are weighed, marked and divided at random into groups of 10. The acetic acid solution (Sigma) is prepared at 0.6% (0.1 ml/10 g) i.e. 60 mg of acetic acid in 10 ml of NaCl at 0.9%. At t=0, the mouse receives the product under study or the carrier liquid by the subcutaneous route (0.1 ml/10 g). At t=30 minutes, the acetic acid is injected by the intraperitoneal route (0.1 ml/10 g). A count is taken of the number of abdominal cramps from 5 to 20 minutes after the injection of acetic acid. Clear abdominal cramps characterized by stretching of the hind paws and/or hollowing of the flanks with writhing are regarded as positive. Nefopam hydrochloride (Biocodex, lot 38) (referred to hereinafter simply as nefopam) is dissolved in distilled water or in NaCl at 0.9%. The ibuprofen (Sigma, ref 1-4883) is suspended in Tween 80 at 1%. The test used is a variance analysis based on 3 groups and a Student's t test for 2 groups. The treated group(s) that differ(s) from the control group is (are) then determined. The effective doses for 50% antinociceptive effect (ED50) are calculated using the PharmToolsPro program (version 1.1.27, […] Group Inc.) in accordance with the Tallarida (2000) method Drugs synergism and dose-effect data analysis CRC Press). At least 10 mice are used for each dose, and at least 3 doses are used to determine the dose-response curve. The dose that produces 50% antinociceptive effect (50% reduction in the number of cramps) is calculated by a standard linear regression analysis of the dose-response curve. The interaction is evaluated by an isobolographic analysis of the co-administration of a combination of doses at a fixed ratio according to Tallarida (2000) op. cit., Tallarida et al. (1989) Life Sci. 45:947-961 and Tallarida et al. (1997) Life Sci. 61:PL417-PL425. The isobologram is constructed by joining the ED50 of the ibuprofen with that of the nefopam in order to obtain the additivity line. The ED50 of the combination is determined by linear regression analysis of the dose-response curve and it is compared by at test with a theoretical additive ED50 obtained using the PharmToolsPro software.

On to `CC(C)Cc1ccc(C(C)C(=O)O)cc1` (stereo not shown) [Ibuprofen, ibuprofen], for which the “dose from which antinociceptive activity is significant” value in experiment [1] (Dolezal & Kusiak (2002)) is listed as not below 30 mg/kg. In addition, the figures for the ED50 in experiment [1] (Jones et al. (2005)) and in experiment [2] were 95 mg/kg and 18.6 ± 2.4 mg/kg, respectively. In addition, the “% variation of number of cramps” value was “+7%” in experiment [2] (ibuprofen 1 mg/kg s.c.); “+14%” in experiment [2] (ibuprofen 3 mg/kg s.c.); −29% in experiment [2] (ibuprofen 10 mg/kg s.c.); −41% in experiment [2] (ibuprofen 20 mg/kg s.c.); −68% in experiment [2] (ibuprofen 30 mg/kg s.c.); −84% in experiment [2] (ibuprofen 50 mg/kg s.c.). Further, in experiment [2] (ibuprofen 100 mg/kg s.c.), the “% variation of number of cramps” value was −84%. Also, the “Number of cramps (mean ± sem)” value in experiment [2] (ibuprofen 1 mg/kg s.c.) is reported as 40.2 ± 3.2; in experiment [2] (ibuprofen 3 mg/kg s.c.), 43.0 ± 6.6; in experiment [2] (ibuprofen 10 mg/kg s.c.), 26.8 ± 3.9; in experiment [2] (ibuprofen 20 mg/kg s.c.), 22.0 ± 2.0; in experiment [2] (ibuprofen 30 mg/kg s.c.), 12.1 ± 2.7; in experiment [2] (ibuprofen 50 mg/kg s.c.), 5.9 ± 1.3. Moreover, in experiment [2] (ibuprofen 100 mg/kg s.c.), the “Number of cramps (mean ± sem)” value was 6.0 ± 1.4.
With `CN1CCOC(c2ccccc2)c2ccccc2C1` (stereo not shown) [Nefopam, Nefopam hydrochloride], in experiment [2], the ED50 amounted to 2.4 ± 0.215 mg/kg. Also, the “% variation of number of cramps” value is recorded as −9% in experiment [2] (nefopam 0.3 mg/kg s.c.); −25% in experiment [2] (nefopam 1.0 mg/kg s.c.); −55% in experiment [2] (nefopam 3.0 mg/kg s.c.); −81% in experiment [2] (nefopam 10.0 mg/kg s.c.); −98% in experiment [2] (nefopam 20.0 mg/kg s.c.). The “Number of cramps (mean ± sem)” value in experiment [2] (nefopam 0.3 mg/kg s.c.) amounted to 33.6 ± 3.8; in experiment [2] (nefopam 1.0 mg/kg s.c.) it was 28.0 ± 6.3; in experiment [2] (nefopam 3.0 mg/kg s.c.) it was 16.7 ± 2.0; in experiment [2] (nefopam 10.0 mg/kg s.c.), 7.1 ± 1.7; in experiment [2] (nefopam 20.0 mg/kg s.c.) it was 0.6 ± 0.3.
